Data on three compounds can be found in patent US20120018333A1, “Reducing Side Effects of Tramadol” (priority 2007, published 2012).

Series [1] can be described thus: volunteer study of adverse events: tramadol HCl alone or combined with sildenafil citrate and naltrexone HCl before sexual intercourse. Here is the method:
In particular, three healthy, heterosexual male subjects (mean age 57) signed informed consents and volunteered to self administer oral tramadol HCl 100 mg 2 to 5 hours before sexual intercourse and to record any adverse events. At other times, these volunteers self administered oral tramadol HCl 25 to 100 mg combined with oral sildenafil citrate 50 mg or oral sildenafil citrate 50 mg plus oral naltrexone HCl 2.5 to 10 mg 2 to 5 hours before sexual intercourse and recorded any adverse effects.

Series [2] is described as follows: placebo controlled, dose-ranging clinical study of oral tramadol HCl in men with severe premature ejaculation. Type of series: in vivo, human. The note with it: percentages based on total drug exposures for the three doses, 2 to 5 hours before intercourse. Here is the method:
See U.S. Pat. No. 6,974,839, Safarinejad et al., J. Clin. Psychopharmacol., 26(1):27-31 (February 2006) and Salem et al., J. Sex. Med., 5(1):188-193 (January 2008). A placebo controlled, dose-ranging clinical study that enrolled more than 60 male volunteers with severe premature ejaculation who self administered three different doses of oral tramadol HCl 2 to 5 hours before sexual intercourse was performed on behalf of DMI BioSciences, Inc., Aurora, Colo. […] However, the patient reported outcome responses in this study also reported the following previously unreported mild or moderate adverse events (percentages based on total drug exposures for the three doses): erectile dysfunction (8%-14%), anorgasmia (3%-7%), and penile hypoesthesia (4%-5%). Less common unexpected, drug-related mild or moderate adverse events were decreased libido (<1%-2%) and decreased orgasmic sensation (0-<1%). These mild or moderate adverse events related to sexual activity were generally dose-dependent and occurred more frequently in men 40 years of age and older.

For series [3] the following is noted: used for analgesia; cited from earlier work.
[4] abbreviates: tramadol HCl 100 mg alone, % of total drug exposures, three volunteers.

Counter-ions that a name gives are not always drawn.

As for `COc1cccc([C@]2(O)CCCC[C@H]2CN(C)C)c1` (racemic) [tramadol HCl, (±) cis-2-[(dimethylamino)methyl]-1-(3-methoxyphenyl)-cyclohexanol hydrochloride], in series [1] (oral, 2 to 5 hours before sexual intercourse), the serious adverse events entry was “No serious adverse events occurred”. In addition, in series [1] (setting [4]), the anorgasmia is 29%, the constipation was determined as 71%, the decreased libido came to 43% and the decreased orgasmic sensation was 57%. In series [1] (setting [4]), the dizziness is recorded as 14%, the dry mouth was 57%, the erectile dysfunction is 43% and the fatigue was determined as 14%. Moreover, in series [1] (setting [4]), the insomnia amounted to 71%, the itching turned out to be 57%, the nasal congestion is recorded as 57% and the nausea turned out to be 14%. Also, in series [1] (setting [4]), the penile hypoesthesia was determined as 43% and the restlessness is given as 29%. Moreover, the “mild or moderate adverse events, 100 mg dose compared with 25 mg” value in series [1] (tramadol HCl alone, oral) is on record as “substantially more”. In addition, in series [2], the “anorgasmia (mild or moderate adverse event)” value is reported as 3%-7%, the “decreased libido (mild or moderate adverse event)” value is <1%-2%, the “erectile dysfunction (mild or moderate adverse event)” value is 8%-14% and the “penile hypoesthesia (mild or moderate adverse event)” value is recorded as 4%-5%.

Regarding `O=C1CC[C@@]2(O)[C@H]3Cc4ccc(O)c5c4[C@@]2(CCN3CC2CC2)[C@H]1O5` [naltrexone], the “effectiveness of tramadol in delaying ejaculation” value in series [1] (naltrexone 2.5 mg to 10 mg given with tramadol) is recorded as “did not reduce”.

For the compound `COc1cccc(C2(O)CCCCC2CN(C)C)c1` (stereo not shown) [Tramadol, 2-[(dimethylamino)methyl]-1-(3-methoxyphenyl)-cyclohexanol], the “incidence of reported side effects (dizziness, nausea, constipation, headache, somnolence, vomiting, pruritis, CNS stimulation, asthenia, sweating, dyspepsia, dry mouth, diarrhea)” value in series [3] is at least 5%.
